Experimental findings from paper PMC3335777 (Journal of the American Chemical Society, 2012) are described below.

Assay [1] has as its target T1, FabF (Staphylococcus aureus, UniProt Q8NXE1).
T1 sequence (Q8NXE1 1-414): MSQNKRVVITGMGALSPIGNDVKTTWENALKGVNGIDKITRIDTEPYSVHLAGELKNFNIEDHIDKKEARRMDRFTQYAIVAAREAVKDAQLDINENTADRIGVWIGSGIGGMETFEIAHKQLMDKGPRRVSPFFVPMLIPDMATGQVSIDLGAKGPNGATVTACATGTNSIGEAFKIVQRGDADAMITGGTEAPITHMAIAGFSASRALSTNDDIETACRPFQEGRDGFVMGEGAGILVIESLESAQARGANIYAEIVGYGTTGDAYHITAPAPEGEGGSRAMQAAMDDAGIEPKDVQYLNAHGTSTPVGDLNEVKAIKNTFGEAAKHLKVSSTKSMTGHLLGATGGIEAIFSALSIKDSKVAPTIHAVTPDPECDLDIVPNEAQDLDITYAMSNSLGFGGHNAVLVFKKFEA
Nature of the assay: […]-malonyl-CoA FASII elongation assay. Type of assay: biochemical.

Assay [2] has as its target T1, FabF. The class given is biochemical.

Where two headings read alike, the source gives them in different places.

fasamycin B [compound 2] displayed an IC50 in assay [1] of 80 µg/mL. In turn, fasamycin A [compound 1] had an IC50 in assay [2] of 50 µg/mL.
